Reference: patent US20030134851A1, “Methods and compositions for providing glutamine” (priority 2001, published 2003)
Entries after “also recorded” stand apart in the source; their conditions may differ. One block for each molecule: values may come before it.

Tests used:
[1] = system: intestinal damage caused by protein-energy malnutrition; assay: Intestinal damage caused by protein-energy malnutrition in pigs; format: in vivo, pig; conditions: for Ileal mucosa histology (electron transmission microscopy) / Jejunal mucosa histology (electron transmission microscopy): malnourished pigs fed ENSURE PLUS plus supplement; for Alkaline phosphatase (AP) activity in jejunum: versus caseinate supplement; for T helper (CD4+) subpopulation of intra-epithelial lymphocytes in jejunum: versus control group
Experimental: A study was conducted to evaluate the potential effects of N-acetyl-L-glutamine versus free glutamine on intestinal damage caused by protein-energy malnutrition in pigs. In this study, 5-week-old domestic pigs, were provided by a certified farm. The pigs were randomly assigned to one of two groups. In one group 3 pigs were freely fed with ENSURE PLUS® (Ross Products Division, Abbott Laboratories) for 30 days. In the second group, 9 pigs were also fed with ENSURE PLUS®, but at only 20% of the daily intake of the first group. This second group was divided into 3 subgroups with […] each to receive a daily supplement of either calcium caseinate, glutamine or N-acetyl-L-glutamine. Daily average energy and protein supplied to the control group ranged from 3300 kcal, 138 g protein at the beginning of the study to 4500 kcal, 187 g protein at the end of the study. In the second group, supplements of caseinate, glutamine and N-acetyl-L-glutamine provided an additional 1.32 grams nitrogen equivalents per day (basically, 6.89 grams L-glutamine, or 8.87 grams N-acetyl-L-glutamine or 8.42 grams caseinate protein are supplemented per day). After 30 days, all pigs were deprived of food for 16 hours. The animals were then weighed, sedated, anesthetized and sacrificed through terminal bleeding by jugular puncture.
The entire small intestine was quickly removed. The 60 cm segment of the small intestine from the ligament of Treitz was considered proximal jejunum. A 5 cm long segment from the ligament of Treitz was selected for histological analysis of jejunum. The 60 cm length closest to the ileo-cecal valve was considered the distal ileum. A 5 cm segment from the ileo-cecal valve was selected for histological analysis of the ileum. The intestine segments were rinsed thoroughly with ice-cold saline solution, opened length-wise and blotted dry. The mucosa was scraped off using a glass slide onto a cold Petri dish, weighed, immediately frozen under liquid nitrogen and stored at −80° C. until biochemical analysis.
Jejunal and ileal mucosa were homogenized in 10 mM phosphate buffer (pH 7.4) using a mechanical Potter homogenizer, for protein and DNA assays. For the determination of the enzymatic markers of injury, functionality and antioxidant defense system, the mucosal homogenates were centrifuged at 3000 g for 10 min. and the resulting supernatants were used for enzymatic assays. For the determination of total glutathione, the mucosa was homogenized in 5% trichloroacetic acid and centrifuged at 8000 g for 5 min.
Biochemical analysis and immunological analysis were performed on the specimens. Concentrations of intestinal mucosa protein and DNA were determined using the Bradford method (Analytical Biochemistry, Volume 72, pages 248-254, 1976) and the method of Labarca and Paigen (Analytical Biochemistry, Volume 102 (2), pages 344-352, 1980), respectively. The degree of intestinal damage caused by malnutrition was evaluated by measuring alkaline phosphatase activity using the method of Goldstein (R. Goldstein, T. Klein, S. Freier and J. Menczel. American Journal of Clinical Nutrition 24: 1224-1231, 1970).
Glutathione reductase activity was evaluated by the method of Carlberg and Mannervik (I. Carlberg and B. Mannervik, Methods in Enzymology, Volume 113, pp 484-490, 1985). Glutathione transferase activity was measured using the method of Habig, et al. (W. H. Habig, M. J. Pabst and W. B. Jakoby, Journal of Biological Chemistry. […]). Glutathione peroxidase activity was assayed by the method of Flohe and Gunzler (L. Flohe and W. A. Gunzler, Methods in Enzymology, Volume 105, pp 114-121, 1984), and the non-protein sulfhydryl content (reported as reduced glutathione equivalents) was determined by the method of Anderson (M. E. Anderson, Methods in Enzymology, 133: 548-554, 1985). […]

[2] = Aqueous N-acetyl-L-glutamine and glutamine heat stability at 100° C. (HPLC); format: physicochemical; conditions: for Stability during incubation at 100° C. (in words): aqueous solution, 2 hour incubation at 100° C.
Experimental: In order to test the stability of aqueous N-acetyl-glutamine upon heating, the following procedure was followed. Aqueous solutions of N-acetyl-L-glutamine (obtained from Sigma, catalog no. A-9125) and glutamine (obtained from Aldrich, catalog no. G-320-2) at approximately 1 mg/mL (5.3 mM and 6.8 mM, respectively) were prepared without pH adjustment. The pH of the resulting N-acetyl-L-glutamine solution was 2.9 and the pH of the glutamine solution was 6.0. The solutions were heated at 100° C. using a Reacti-Therm™ stirring heat block with sealed 4 mL vessels, one for each time point: 15 minutes, 30 minutes, 1 hour and 2 hours. The samples were removed from the heat block and immediately placed into ice until cool. An aliquot of each sample was filtered through 0.45 micrometer filters (Millipore Millex®-HV, 25 mm) for assessment by HPLC. HPLC analysis was conducted using an Inertsil® C8, 5 micrometer, 4.6×250 mm column (obtained from Keystone Scientific, Inc., Bellefonte, Pa.). The mobile phase was water adjusted to pH 2.2 with HCl (isocratic at 1 mL/minute). The injection volume was 10 microliters. Ultraviolet detection was at 214 nm.

[3] = approx. 1 mg/mL, pH 6.0, 100° C., 30 min
[4] = approx. 1 mg/mL, pH 6.0, 100° C., 60 min
[5] = approx. 1 mg/mL, pH 6.0, 100° C., 120 min

- GLN (glutamine) in glutamine solution ([2]; approx. 1 mg/mL (6.8 mM), pH 6.0, 100° C., 0 min): 100.0 height %
- PGA (pyroglutamic acid) in glutamine solution ([2]; approx. 1 mg/mL, pH 6.0, 100° C., 0 min): none detected
- GLN (glutamine) in glutamine solution [2, 3]: 90.2 height %
- PGA (pyroglutamic acid) in glutamine solution [2, 3]: 9.8 height %
- GLN (glutamine) in glutamine solution [2, 4]: 80.0 height %
- PGA (pyroglutamic acid) in glutamine solution [2, 4]: 20.0 height %
- GLN (glutamine) in glutamine solution [2, 5]: 53.6 height %
- GLU (glutamate) in glutamine solution [2, 5]: 10.6 height %
- PGA (pyroglutamic acid) in glutamine solution [2, 5]: 35.8 height %
- Stability during incubation at 100° C. (in words) [2]: not stable
Structure (SMILES): NC(=O)CC[C@H](N)C(=O)O [Glutamine, glutamine]
- Ileal mucosa histology (electron transmission microscopy) ([1]; 30 days): displayed loss of microvilli, wide intercellular spaces, and intense lymphocytes infiltration
- Jejunal mucosa histology (electron transmission microscopy) ([1]; 30 days): displayed shortened microvilli, expanded intercellular spaces, and irregular lobulated nucleus
- Prevention of biochemical and immunological changes induced by malnutrition in the small intestine ([1]; malnourished pigs, 30 days): no clear effect
- Alkaline phosphatase (AP) activity in jejunum ([1]; malnourished pigs, 30 days): tended to have higher AP activity
- Total number of peyer's patch lymphocytes in ileum ([1]; malnourished pigs, versus N-acetyl-glutamine-supplemented or control groups): significantly lower
- T helper (CD4+) subpopulation of intra-epithelial lymphocytes in jejunum ([1]; malnourished pigs): significantly higher

Structure (SMILES): CC(=O)N[C@@H](CCC(N)=O)C(=O)O [N-acetyl-L-glutamine]
- Prevention of overt signs of inflammation in the epithelial lining of the gastrointestinal tract ([1]; electron transmission micrographs, malnourished pigs): more effective than glutamine
- Ileal mucosa histology (electron transmission microscopy) ([1]; 30 days): less affected by protein-energy malnutrition
- Jejunal mucosa histology (electron transmission microscopy) ([1]; 30 days): less affected by protein-energy malnutrition
- Glutathione transferase activity in small intestine ([1]; malnourished pigs, 30 days): less affected by the malnutrition process
- Number of CD1+ intra-epithelial lymphocytes in jejunum ([1]; malnourished pigs, 30 days): significantly higher than in the rest of the groups
- Prevention of biochemical and immunological changes induced by malnutrition in the small intestine ([1]; malnourished pigs, 30 days): performed better than the glutamine or caseinate supplemented groups; also recorded: positive effect
- Intestinal contents of protein (jejunum and ileum) and DNA (ileum) ([1]; malnourished pigs, 30 days, versus caseinate or glutamine supplement): tended to be higher
- Amount of GSH in the intestinal mucosa ([1]; malnourished pigs, 30 days, versus caseinate or glutamine, did not reach significance): tended to be slightly higher
- Alkaline phosphatase (AP) activity in jejunum ([1]; malnourished pigs, 30 days): tended to have higher AP activity
- Total number of peyer's patch lymphocytes in jejunum ([1]; malnourished pigs, versus caseinate- or glutamine-supplemented groups): tendency of the total number of peyer's patch lymphocytes to be higher
- T helper (CD4+) subpopulation of intra-epithelial lymphocytes in jejunum ([1]; malnourished pigs): significantly higher
- NAQ (N-acetyl-L-glutamine) in N-acetyl-L-glutamine solution ([2]; approx. 1 mg/mL (5.3 mM), pH 2.9, 100° C., 0 min): 99.7 area %
- NAQ (N-acetyl-L-glutamine) in N-acetyl-L-glutamine solution ([2]; approx. 1 mg/mL, pH 2.9, 100° C., 30 min): 98.1 area %
- NAQ (N-acetyl-L-glutamine) in N-acetyl-L-glutamine solution ([2]; approx. 1 mg/mL, pH 2.9, 100° C., 60 min): 96.9 area %
- NAQ (N-acetyl-L-glutamine) in N-acetyl-L-glutamine solution ([2]; approx. 1 mg/mL, pH 2.9, 100° C., 120 min): 93.4 area %
- Stability during incubation at 100° C. (in words) [2]: much more stable than glutamine
- NAE (N-acetyl-L-glutamic acid) in N-acetyl-L-glutamine solution ([2]; pH 2.9, 100° C., 0 min): 0.3 area %
- 2,6-DPA (2,6-dioxopiperidinylacetamide) in N-acetyl-L-glutamine solution ([2]; pH 2.9, 100° C., 30 min): 0.6 area %
- NAE (N-acetyl-L-glutamic acid) in N-acetyl-L-glutamine solution ([2]; pH 2.9, 100° C., 30 min): 1.2 area %
- 2,6-DPA (2,6-dioxopiperidinylacetamide) in N-acetyl-L-glutamine solution ([2]; pH 2.9, 100° C., 60 min): 1.3 area %
- NAE (N-acetyl-L-glutamic acid) in N-acetyl-L-glutamine solution ([2]; pH 2.9, 100° C., 60 min): 1.8 area %
- 2,6-DPA (2,6-dioxopiperidinylacetamide) in N-acetyl-L-glutamine solution ([2]; pH 2.9, 100° C., 120 min): 2.7 area %
- NAE (N-acetyl-L-glutamic acid) in N-acetyl-L-glutamine solution ([2]; pH 2.9, 100° C., 120 min): 3.7 area %
- PGA (pyroglutamic acid) in N-acetyl-L-glutamine solution ([2]; pH 2.9, 100° C., 120 min): 0.2 area %
